Measured values as given in patent US20110052534A1, “Imidazopyridazine Compounds for Treating Viral Infections” (priority 2009, published 2011).

Key:
Assay type in all cases: cell-based
[1] = in vitro; details: human; Table 3; cytotoxicity, cell titer glo, same condition as replicon assay; read-out: HCV Genotype 1B CC50
Text: (§1) The genotype 1a replicon contains several adaptive mutations (NS4B Q31H, NS5A K68R, NS5A S232I), the luciferase gene and encodes for neomycin resistance. The genotype 1b replicon, also referred to as the ET replicon, is stably transfected with RNA transcripts harboring a I389luc-ubi-neo/NS3-3′/ET replicon with firefly luciferase-ubiquitin-neomycin phosphotransferase fusion protein and EMCV-IRES driven NS3-5B polyprotein containing the cell culture adaptive mutations (E1202G; T12801; K1846T) See, Kreiger, et al., Journal of Virology 75:4614-4624 (2001). Both cell lines were grown in DMEM, supplemented with 10% fetal calf serum, 2 mM Glutamine, Penicillin (100 IU/mL)/Streptomycin (100 μg/mL), 1×nonessential amino acids, and 250 μg/mL G418 (“Geneticin”). They were all available through Life Technologies (Bethesda, Md.). The cells were plated at 0.5×10^4 cells/well in 384 well plates containing compounds. The final concentration of compounds ranged between 0.1 nM to 50 μM and the final DMSO concentration of 0.5%.
(§2) Luciferase activity was measured 48 hours later by adding a Steady glo (Promega, Madison, Wis.). Percent inhibition of replication data was plotted relative to no compound control. Under the same condition, cytotoxicity of the compounds was determined using cell titer glo (Promega, Madison, Wis.). EC50 values were determined from a 10 point dose response curve using 2-4 fold serial dilutions for each compound, which spans a concentration range of at least a 1000 fold. Replicon EC50 values, the concentration of compound required to inhibit 50% of the assay response, were calculated by curve fitting data to the Hill equation, using a non-linear least-squares curve-fitting program. The software tested the data for quality and rejected compounds with high and low activity before fitting the equation below.

[2] = system: HCV genotype 1b replicon (ET replicon); assay: microbe, parasite or virus in culture; details: Hepatitis C virus; Table 3; luciferase activity after 48 hours; read-out: HCV Genotype 1B Replicon EC50
Text: (§3) Two cell lines were used for screening of compounds for inhibiting HCV RNA replication (genoytype 1a and 1b). Genotype la replicon cells, are a Huh-7 derived cell line bearing the genotype 1a H77NS3-5B bicistronic subgenomic replicon. See, Blight, et al., J. Virol. (2003) 77(5): 3181-3190.
as §1, §2
(§4) Analysis was performed using an XC50 module and BioAssay Enterprise (Cambridge Soft).

[3] = system: HCV genotype 1a H77 NS3-5B bicistronic subgenomic replicon; assay: microbe, parasite or virus in culture; details: Hepatitis C virus; Table 3; luciferase activity after 48 hours; read-out: HCV Genotype 1A Replicon EC50
Text: as §3, §1, §2, §4

| SMILES | CC50 [1] [nM] | EC50 [2] [nM] | EC50 [3] [nM] |
| --- | --- | --- | --- |
| COC(=O)C(c1cc(-c2ccc(C3CC3)cc2C(F)(F)F)no1)n1cc2nc(-c3cccc(F)c3F)nc-2cn1 (centres unmarked) [Compound 178, Methyl {3-[4-cyclopropyl-2-(trifluoromethyl)phenyl]-5-isoxazolyl}[2-(2,3-difluorophenyl)-5H-imidazo[4,5-d]pyridazin-5-yl]acetate] | 25000 | 10 | 50 |
| O=C(OCCOCCO)C(c1cc(-c2ccc(C3CC3)cc2C(F)(F)F)no1)n1cc2nc(-c3cccc(F)c3F)nc-2cn1 (centres unmarked) [Compound 179, 2-[(2-hydroxyethyl)oxy]ethyl {3-[4-cyclopropyl-2-(trifluoromethyl)phenyl]-5-isoxazolyl}[2-(2,3-difluorophenyl)-5H-imidazo[4,5-d]pyridazin-5-yl]acetate] | 50000 | 13 | 79 |
| CC(CO)(CO)COC(=O)C(c1cc(-c2ccc(C3CC3)cc2C(F)(F)F)no1)n1cc2nc(-c3cccc(F)c3F)nc-2cn1 (centres unmarked) [Compound 180, 3-hydroxy-2-(hydroxymethyl)-2-methylpropyl {3-[4-cyclopropyl-2-(trifluoromethyl)phenyl]-5-isoxazolyl}[2-(2,3-difluorophenyl)-5H-imidazo[4,5-d]pyridazin-5-yl]acetate] | – | 8 | 79 |
| O=C(OCCCO)C(c1cc(-c2ccc(C3CC3)cc2C(F)(F)F)no1)n1cc2nc(-c3cccc(F)c3F)nc-2cn1 (centres unmarked) [Compound 182, 3-Hydroxypropyl {3-[4-cyclopropyl-2-(trifluoromethyl)phenyl]-5-isoxazolyl}[2-(2,3-difluorophenyl)-5H-imidazo[4,5-d]pyridazin-5-yl]acetate] | > 50000 | 13 | 63 |
| CCCOC(=O)C(c1cc(-c2ccc(C3CC3)cc2C(F)(F)F)no1)n1cc2nc(-c3cccc(F)c3F)nc-2cn1 (centres unmarked) [Compound 184, Propyl {3-[4-cyclopropyl-2-(trifluoromethyl)phenyl]-5-isoxazolyl}[2-(2,3-difluorophenyl)-5H-imidazo[4,5-d]pyridazin-5-yl]acetate] | 25000 | 13 | 79 |
| O=C(OCCCOP(=O)(O)O)C(c1cc(-c2ccc(C3CC3)cc2C(F)(F)F)no1)n1cc2nc(-c3cccc(F)c3F)nc-2cn1 (centres unmarked) [Compound 186, 3-(phosphonooxy)propyl {3-[4-cyclopropyl-2-(trifluoromethyl)phenyl]-5-isoxazolyl}[2-(2,3-difluorophenyl)-5H-imidazo[4,5-d]pyridazin-5-yl]acetate] | 50000 | 10 | 79 |
